Entries after “also recorded” stand apart in the source; their conditions may differ. Structures can show the parent of a compound that is named as a salt. Where two headings read alike, the source gives them in different places.
Columns and labels:
[1] = Tissue distribution of ATR-101 in rats; assay type: in vivo; conditions: for Kp at 7 days: rat, female rats, 100 mg/kg/day for 7 days, N=3
Experimental: (§1) Tissue distribution of ATR-101 in 3 rats and 3 dogs was examined. ATR-101 concentrations were measured in plasma, red blood cells, adrenal gland, liver, kidney, skeletal muscle, ovary, subcutaneous fat, and cerebral spinal fluid. […] ATR-101 concentrations in rats were higher in adrenal gland (˜2×) and ovary (˜1.4×) than in plasma. […] ATR-101 concentrations in dogs were similar in adrenal gland and plasma.

adrenal gland [2] = test: Adrenal gland weights in dogs after 28 days; assay type: in vivo
Experimental: Left and right adrenal glands from male and female dogs treated with various doses of ATR-101 (0 mg/kg/day, 0.3 mg/kg/day, 3 mg/kg/day, or 30 mg/kg/day) for 28 days were collected at necropsy and weighed. Dose-related changes in adrenal gland weights occurred in both sexes (FIGS. 16A and 17A). Absolute and relative (adrenal-to-body (Adrenal:BW (%)) and adrenal-to-brain (Adrenal:BrW) weight ratios) adrenal weights were decreased 14% to 55% in both sexes at ≧3 mg/kg/day (FIGS. 16A-C and 17A-C). After the 4 week recovery period, adrenal weights remained decreased 6% to 11% in males at 3 mg/kg/day and 10% to 32% in both sexes at 30 mg/kg/day. […] Histologic changes in the adrenal glands persisted after the recovery period.

[3] = target: complex II of the electron transport chain (Homo sapiens, UniProt O14521+P21912+P31040+Q99643); conditions: isolated mitochondria; cited from earlier work
H295R cells [4] = test: Reducing activity of H295R cells (resazurin reduction, PrestoBlue); assay type: cell-based, human
Experimental: (§2) To measure ATP levels and reducing potentials of H295R cells, these cells were cultured in 96-well flat bottom cell culture plates (BD Biosciences) plated at 50,000 cells in 100 μl. The cells were plated in DMEM media without glucose (GIBCO 11966)+10 mM galactose+5 mM sodium-HEPES+2 mM glutamine (addition)+1 mM sodium pyruvate+100 U/ml penicillin/streptomycin+either 0% or 5% fetal calf serum. After overnight (16-20 h) incubation, 20 μl of medium containing 5% fetal calf serum as well as the aliquots of ATR-101 required to produce the final concentrations were added to the cells. To measure ATP levels, 100 μl of the CellTiter-Glo® (Promega Corp., Madison, Wis.) reagent was added to lyse the cells at the indicated times, and luciferin luminescence was measured to determine the amount of ATP in the lysate. To measure reducing activity, PrestoBlue® Cell Viability reagent (Life Technologies Corp.) was added to the cells immediately after ATR-101. The cells were incubated at 37° C. with CO2, and resorufin fluorescence was measured at the times indicated.
Cellular reducing activity was determined by measuring resazurin reduction using the PrestoBlue® Cell Viability Reagent (Invitrogen). […] Low to moderate concentrations of ATR-101 increased reducing activity, but had little effect on ATP levels. High concentrations of ATR-101 reduced both reducing activity and ATP levels, presumably because of a decrease in cell viability.
To determine if the culture of H295R cells in the presence of MβCD altered ATR-101 entry into cells, the effects of MβCD on ATR-101 induced changes in reducing activity were examined (FIG. 12D-F). Culture in the presence of MβCD alone had little effect on the reducing activity of the cells (FIG. 12E). […] The reduction in reducing activity was likely related to the reduction in ATP levels caused by MβCD complexed with cholesterol.

[5] = system: cortisol produced by H295R cells xenografted into SCID mice; test: Urinary cortisol levels in mice with H295R xenotransplants (DetectX cortisol assay kit); assay type: in vivo; conditions: 700 then 300 mg/kg/day; from 22 days after cell injection
Experimental: FIG. 8 depicts the urinary cortisol levels in mice with H295R xenotransplants treated with vehicle or ATR-101. Randomized cohorts of 10 mice injected with H295R cells were administered 700 mg/kg/day ATR-101 for 4 days followed by 300 mg/kg/day ATR-101 or vehicle by gavage beginning 14 days after cell injection. Urine was collected on the days indicated beginning at 22 days after cell injection (8 days after the start of ATR-101 or vehicle administration), and the cortisol levels were determined using a DetectX® cortisol assay kit (Arbor Assays).
To investigate the potential therapeutic benefit of ATR-101 in the establishment of ACC xenografts in a mouse model of ACC, ACC-derived cell line H295R was injected in SCID mice (6-7 week males). 1×10^8 cells in 0.2 ml DMEM were injected under the skin in the right dorsal flank regions of SCID mice. Two weeks after injection, the mice were randomized in groups of 10. ATR-101 was administered at 700 mg/kg/day for 4 days, followed by 300 mg/kg/day by oral gavage in 10% DMSO, 0.5% CMC, 0.9% NaCl, 0.2% Tween, pH 3. Control mice were administered vehicle. The tumor size was measured using calipers three times a week. Urinary cortisol was measured at various time points after start of ATR-101 or vehicle administration.

adrenal gland [6] = test: Adrenal gland histopathology in dogs; assay type: in vivo; conditions: 300 mg/kg/day for 28 days; day 28; hydrochloride
Experimental: Left and right adrenal glands from dogs treated with a high dose 300 mg/kg/day of ATR-101 for 28 days and control animals were collected at necropsy and fixed in 10% neutral buffered formalin, processed by routine paraffin technique, sectioned longitudinally, and stained with hematoxylin and eosin for routine light microscopy (FIGS. 15A-E).

H295R cells [7] = test: ATP levels of H295R cells (CellTiter-Glo luminescence); assay type: cell-based, human
Experimental: as §2
To investigate the mechanism whereby ATR-101 kills cells in culture, the effects of cholesterol depletion on the ATP levels of H295R cells cultured in the presence of ATR-101 was investigated. The cells were cultured in the presence of methyl-β-cyclodextrin (MβCD), which can sequester cholesterol and thereby deplete free cholesterol in the cells. […] MβCD increased the concentration of ATR-101 required for half-maximal depletion of ATP levels more than 4-fold.
To determine if the effect of MβCD on ATR-101 cytotoxicity was due to cholesterol depletion, H295R cells were cultured in the presence of the equivalent amount of MβCD complexed with cholesterol (FIG. 12C). […] The protection of H295R cells from the cytotoxicity of ATR-101 by culture in the presence of MβCD was therefore due to cholesterol depletion in these cells.

[8] = Tissue distribution of ATR-101 in dogs; assay type: in vivo
Experimental: as §1

complex II of the electron transport chain, sequence (P31040 43-664): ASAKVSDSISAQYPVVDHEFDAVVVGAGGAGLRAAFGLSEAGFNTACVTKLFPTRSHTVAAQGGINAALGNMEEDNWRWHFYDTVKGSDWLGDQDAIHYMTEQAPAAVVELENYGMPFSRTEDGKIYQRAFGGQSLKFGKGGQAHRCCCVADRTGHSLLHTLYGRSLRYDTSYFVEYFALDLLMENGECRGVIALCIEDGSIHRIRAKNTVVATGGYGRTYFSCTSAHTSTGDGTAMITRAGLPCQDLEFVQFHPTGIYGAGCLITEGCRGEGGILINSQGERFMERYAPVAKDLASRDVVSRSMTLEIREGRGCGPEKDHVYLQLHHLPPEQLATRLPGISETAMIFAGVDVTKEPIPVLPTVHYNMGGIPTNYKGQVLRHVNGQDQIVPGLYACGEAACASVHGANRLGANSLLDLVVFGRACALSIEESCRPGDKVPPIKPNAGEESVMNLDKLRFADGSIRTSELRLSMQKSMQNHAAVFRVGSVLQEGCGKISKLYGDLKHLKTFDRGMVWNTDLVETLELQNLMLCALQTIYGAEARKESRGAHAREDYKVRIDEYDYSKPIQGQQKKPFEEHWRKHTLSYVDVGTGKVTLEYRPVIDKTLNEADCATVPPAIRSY
complex II of the electron transport chain, sequence (P21912 29-280): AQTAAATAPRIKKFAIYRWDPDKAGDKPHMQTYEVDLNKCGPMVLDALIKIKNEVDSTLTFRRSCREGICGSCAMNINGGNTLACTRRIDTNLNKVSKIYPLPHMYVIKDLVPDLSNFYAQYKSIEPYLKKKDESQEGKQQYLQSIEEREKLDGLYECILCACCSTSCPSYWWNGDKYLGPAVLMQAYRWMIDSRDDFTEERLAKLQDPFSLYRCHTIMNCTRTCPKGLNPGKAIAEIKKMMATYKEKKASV
complex II of the electron transport chain, sequence (Q99643 30-169): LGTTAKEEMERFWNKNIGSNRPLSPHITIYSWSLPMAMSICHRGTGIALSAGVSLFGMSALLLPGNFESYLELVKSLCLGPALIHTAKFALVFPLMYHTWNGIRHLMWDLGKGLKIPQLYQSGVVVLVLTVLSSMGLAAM
complex II of the electron transport chain, sequence (O14521 57-159): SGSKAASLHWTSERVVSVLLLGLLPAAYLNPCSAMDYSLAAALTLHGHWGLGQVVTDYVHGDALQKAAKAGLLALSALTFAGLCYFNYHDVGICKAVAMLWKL

CC(C)c1cccc(C(C)C)c1NC(=O)NCC1(c2ccc(N(C)C)cc2)CCCC1 [ATR-101, N-(2,6-bis(1-methylethyl)phenyl)-N′-((1-(4-(dimethylamino)phenyl)cyclopentyl)-methyl)urea hydrochloride]
Kp at 7 days ([1]; adrenal gland (relative to plasma), read-out: adrenal gland concentration relative to plasma): ~2 | Kp at 7 days ([1]; ovary (relative to plasma), read-out: ovary concentration relative to plasma): ~1.4 | blood-brain barrier crossing ([1]; rats): does not appear to cross the blood-brain barrier | level in cerebral spinal fluid (CSF) ([1]; rats, likely contamination of CSF with blood): Low levels | histologic changes in adrenal glands after recovery period (adrenal gland [2]; after 4 week recovery): persisted | histologic changes associated with adrenal weight changes (adrenal gland [2]; both sexes, ≧3 mg/kg/day): adrenal cortical atrophy, fibrosis, and vacuolation | effect on complex II of the electron transport chain [3]: inhibit | reducing activity in cells cultured in presence of MβCD (H295R cells [4]; 2 mM MβCD): larger increase in reducing activity | resazurin fluorescence signal, higher concentrations (H295R cells [4]; ATR-101 concentrations higher than 8 μM): reduced the fluorescence | reducing activity in cells cultured with MβCD complexed with cholesterol (H295R cells [4]; MβCD complexed with cholesterol, in absence and presence of ATR-101): lower reducing activities | resazurin fluorescence signal, low concentrations (H295R cells [4]; up to 8 μM ATR-101): increased the fluorescence signal | average urinary cortisol levels versus vehicle [5]: lower | adrenal gland histopathology findings (adrenal gland [6]): fibrosis; also recorded: vacuolation; also recorded: cortical atrophy | reduction of ATP luminescence signal (H295R cells [7]; 64 μM, 4 hours): about 90% | increase by MβCD of ATR-101 concentration required for half-maximal depletion of ATP levels (H295R cells [7]; 2 mM MβCD): more than 4 fold | ATP levels of cells cultured in presence of MβCD (H295R cells [7]; 2 mM MβCD, up to 32 μM ATR-101): unaffected | EC50 (H295R cells [7]; Homo sapiens, NCI-H295R, 4 hours, read-out: concentration with half-maximal effect on ATP luminescence signal): 16 µM | ATP level in cells cultured with MβCD complexed with cholesterol (H295R cells [7]; MβCD (2 mM) complexed with cholesterol): further reduction | blood-brain barrier crossing ([8]; dogs): does not appear to cross the blood-brain barrier | adrenal gland concentration compared with plasma ([8]; female dogs, 3 mg/kg/day for 7 days, N=3): similar

— patent publication US9877937B2, “Compounds and methods for treating aberrant adrenocortical cell disorders” (Millendo Therapeutics, Inc., priority 2012, dated 2018)
